Values after ≈ are worked out from the molar mass of the structure shown. Like-named read-outs stand apart in the source and are kept apart here.
Columns and labels:
physchem [1] = format: physicochemical; conditions: oil or lipid
Description: The solubility of a compound is an important factor in determining its absorption from the gastrointestinal tract and ultimately its oral bioavailability. First it was determined the solubility of VCE-004.8 in a collection of different solvents (e.g., aqueous, lipidic, organic, etc.). Additionally, a test of stability of VCE-004.8 in selected solvents was also used as a criterion for selection of the best solvents.

[2] = Turbidimetric aqueous solubility (estimated precipitation range); format: physicochemical; conditions: aqueous solubility test at 37° C.
physchem [3] = format: physicochemical; conditions: for solubility at 24 h / solubility at 24 hr: thermodynamic from solid
Description: A quantitative thermodynamic solubility determination on VGE-004.8 was performed. Suspensions of VCE-004.8 were prepared in different pharmaceutical vehicles and organic solvents. The organic solvents, lipid and co-solvent vehicles consisted of pure solvent or lipid, while the cyclodextrin solutions were prepared in phosphate buffer pH 7.0. […] The concentration of VCE-004.8 in solution was determined by HPLC analysis.

[4] = Solubility of VCE-004.8 and its phytosomes in buffer medium at various pH; format: physicochemical; conditions: 37 °C, thermodynamic from solid
Description: The solubility of Phytosome-VCE-004.8 was tested in buffer medium at various pH (1.2, 4, 5, 6, […] and 8.0). For each pH, independent supersaturated solutions of VCE-004.8 and its phytosomes were prepared. The suspensions w ere sonicated for 10 min and kept in a water bath at 37° C. for 2 hr. Then the final suspensions were filtered (with 0.45 PTFE disposable fitter) and the solutions were injected for HPLC analysis. […] The 1:2 ratio resulted to be slightly more soluble than the 1:1 ration, and the best behavior was shown at neutral and basic pH. Accordingly. Phytosome 1:2 was selected for following assessment of PK profile in rats (Formulation n°8). Phytosome 1:2 contained 24% of VCE-004.8 and was prepared in Methyl cellulose 1% in water for oral administration.

[5] = Solvent shift method in SGF and SIF; format: physicochemical; conditions: for API concentration in solution: SIF
Description: These experiments applied to a 5 mg/mL solution of VCE-004.8 in DMSO, of which 80 μL was added to 4 mL polymer solutions prepared in simulated intestinal fluid (SIF) and simulated gastric fluid (SGF). Subsequently the samples were incubated at 25° C. under continuous stirring, and after 0.5, 1, 2 and 4 hr, an aliquot was taken, filtered and analyzed by HPLC to determine the VCE-004.8 concentration in solution. Results are presented in FIG. 11 (SGF) and FIG. 12 (SIF).

[6] = Stress test of VCE-004.8 drug substance; format: physicochemical
Description: A stress test was performed concluding that VCE-004.8 drug substance is stable for 3 days at 65° C.+/−5° C. in glass vials. […] A short-term stability study at 40° C. was completed with indecisive results due to the early development stage of the impurity method.

CB1 receptor = CB1 receptor (Homo sapiens, UniProt P21554); assay: Receptor screening study, CB1 receptor affinity; format: binding
in vitro = in vitro ADME; conditions: plasma
[7] = tested on: Theiler Murine Encephalomyelitis Virus-induced demyelmating disease model (TMEV); assay: TMEV model; format: in vivo, mice
Text: 2) Theiler Murine Encephalomyelitis Virus-induced demyelmating disease model (TMEV) that mimics progressive forms of MS.

[8] = tested on: TGFβ-induced Col1A2 gene transcription and collagen synthesis; assay: TGFβ-induced fibrotic responses in vitro; format: cell-based
[9] = tested on: cuprizone/rapamycin (C/R) mouse model; assay: Cuprizone/rapamycin model, myelin assessment in grey and white matter; format: in vivo, Male C57BL/6J
Description: Myelin assessment in grey and white matter was evaluated via: (1) PLP staining and density in the hippocampus and cortex; and (2) PPD staining and manual counts in the corpus callosum.
Male C57BL/6J (n=5 or 12/group) were treated for 12 weeks with C/R to cause demyelination of white and gray matter regions of the brain. […] Thereafter, the brains were harvested and processed for immunohistochemical staining and quantification of myelinated axons in gray matter (hippocampus (HIP), cerebral cortex (CTX)) by proteolipid protein (PLP) staining and white matter (corpus callosum CC)) by paraphenylenediamine (PPD) staining.

[10] = oral 5, 10, 20 mg/kg/day for 6 weeks, vs vehicle control

Chain of CB1 receptor (P21554 whole entry): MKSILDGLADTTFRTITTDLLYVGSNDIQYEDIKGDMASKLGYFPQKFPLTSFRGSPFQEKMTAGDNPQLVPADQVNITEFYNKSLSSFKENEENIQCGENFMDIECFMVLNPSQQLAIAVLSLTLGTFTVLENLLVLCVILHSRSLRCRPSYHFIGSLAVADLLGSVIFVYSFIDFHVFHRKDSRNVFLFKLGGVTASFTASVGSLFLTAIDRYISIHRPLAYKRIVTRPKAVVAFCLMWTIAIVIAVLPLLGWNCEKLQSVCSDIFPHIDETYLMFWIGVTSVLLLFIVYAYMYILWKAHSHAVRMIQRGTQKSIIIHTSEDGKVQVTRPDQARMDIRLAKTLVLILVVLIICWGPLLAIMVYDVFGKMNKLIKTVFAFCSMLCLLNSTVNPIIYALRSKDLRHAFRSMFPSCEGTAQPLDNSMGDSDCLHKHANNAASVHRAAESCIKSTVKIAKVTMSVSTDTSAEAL

## C=C(C)C1CCC(C)=C[C@H]1C1=C(O)C(=O)C(CCCCC)=C(NCc2ccccc2)C1=O (stereo partly drawn) [VCE-004.8, (1′R,6′R)-3-(Benzylamine)-6-hydroxy-3′-methyl-4-pentyl-6′-(prop-1-en-2-yl)[1,1′-bi(cyclohexane)]-2′,3,6-triene-2,5-dione]
Physchem [1]; 25 °C
  solubility: 17700 µg/mL (≈ 40800 µM)
Physchem [1]; 37 °C
  solubility: 34500 µg/mL (≈ 79600 µM)
[2]
  Estimated Precipitation Range, Calculated Mid-range: <6.5 µM
  Estimated Precipitation Range, Lower Bound: <1 µM
  Estimated Precipitation Range, Upper Bound: 6.5 µM
Physchem [3]
  Solubility class: practically insoluble
Physchem [3]; 25 °C, oil or lipid, Solubility
  solubility at 24 h: 35700 µg/mL (≈ 82300 µM)
Physchem [3]; 25 °C, oil or lipid, Solubility class (Ph. Eur.)
  solubility at 24 h: 33000 to 100000 µg/mL (≈ 76100 to 231000 µM)
Physchem [3]; 25 °C, pH 1, simulated gastric fluid, Solubility
  solubility at 24 h: < 8 µg/mL
Physchem [3]; 25 °C, pH 1, simulated gastric fluid, Solubility class (Ph. Eur.)
  solubility at 24 h: < 100 µg/mL
Physchem [3]; 25 °C, pH 2, aqueous buffer, Solubility
  solubility at 24 h: < 8 µg/mL
Physchem [3]; 25 °C, pH 5, aqueous buffer, Solubility
  solubility at 24 h: < 8 µg/mL
Physchem [3]; 25 °C, pH 5, aqueous buffer, Solubility class (Ph. Eur.)
  solubility at 24 h: < 100 µg/mL
Physchem [3]; 25 °C, pH 7, aqueous buffer, Solubility
  solubility at 24 hr: < 8 µg/mL
Physchem [3]; 25 °C, pH 7, aqueous buffer, Solubility class (Ph. Eur.)
  solubility at 24 hr: < 100 µg/mL
Physchem [3]; 25 °C, pH 7, aqueous with cosolvent or surfactant or cyclodextrin, Solubility class (Ph. Eur.)
  solubility at 24 h: < 100 µg/mL
Physchem [3]; 25 °C, pH 9, aqueous buffer, Solubility
  solubility at 24 hr: < 8 µg/mL
Physchem [3]; 25 °C, pH 9, aqueous buffer, Solubility class (Ph. Eur.)
  solubility at 24 hr: < 100 µg/mL
Physchem [3]; 37 °C, oil or lipid, Solubility
  solubility at 24 h: 23700 µg/mL (≈ 54700 µM)
Physchem [3]; pH 2
  Solubility class (Ph. Eur.): Practicalty insoluble
Physchem [3]; pH 7
  Solubility class: practically insoluble
[4]; pH 1.2, simulated gastric fluid
  solubility thermodynamic at 2 h: 0.005 µg/mL (≈ 0.0115 µM)
[4]; pH 4.5, aqueous buffer
  solubility thermodynamic at 2 h: 0.005 µg/mL (≈ 0.0115 µM)
[4]; pH 6.8, aqueous buffer
  solubility thermodynamic at 2 h: 0.003 µg/mL (≈ 0.00692 µM)
[4]; pH 7.4, aqueous buffer
  solubility thermodynamic at 2 h: 0.001 µg/mL (≈ 0.00231 µM)
[4]; pH 8, aqueous buffer
  solubility thermodynamic at 2 h: 0.001 µg/mL (≈ 0.00231 µM)
[5]; SGF, TGPS solution, after 4 hr, 25° C.
  VCE-004.8 concentration in solution: about 0.03 mg-mL
[5]; Eudragit L100, supersaturation for at least 1 hr
  API concentration in solution: approximately 60 μg/mL
[5]; PVP K30, supersaturation for at least 1 hr
  API concentration in solution: approximately 60 μg/mL
[5]; all the HPMC derivates (except for HPMC as is), from 0.5 to 1 hr
  API concentration in solution: approximately 60 μg/mL
[6]; 65° C.+/−5° C. in glass vials
  stress test: stable for: 3 days
[6]; stress test
  temperatures at which degradation of the product was observed: above 65 °C
CB1 receptor; at a concentration of 10 μM (4336 ng/mL)
  affinity for the CB1 receptor: did not show affinity
CB1 receptor; receptor screening study
  affinity for the CB1 receptor: no detectable affinity
In vitro
  fraction unbound: < 0.01
[7]; TMEV mice
  axonal disorganization: prevented
[7]; TMEV model, actimeter test
  clinical severity and neuropathology: attenuated
[7]; TMEV-infected mice
  microglial reactivity and infiltration of inflammatory cells: significantly reduced
[7]; mice infected with Theiler's virus
  motor deficits: ameliorated
[7]; spinal cord of TMEV mice
  demyelination: significantly reduced
  number of infiltrated CD4+ T cells and immune cells: reduced
[8]
  TGFβ-induced Col1A2 gene transcription and collagen synthesis: inhibited
  TGFβ-mediated myofibroblast differentiation: inhibited
  wound-healing activity: impaired
[9]
  levels of myelinated axons in white matter (corpus callosum), dose relation: dose related effect
[9]; [10]
  area of PLP staining / myelination in the cortex: no significant increase
  area of PLP staining / myelination in the hippocampus: no significant increase

Reference: US20220184003A1, “Formulations of Cannabidiol Derivatives and Their Use as Modulators of Cannabinoid Receptor Type 2 (CB2)” (EMERALD HEALTH PHARMACEUTICALS INC, priority 2019, published 2022)
